Results taken from patent publication US10570122B2, “Compounds with anti-tumoral activity” (AB Science, priority 2015, dated 2020).

What was measured:
CALU6 = assay: CellTiter-Blue cell-based survival/proliferation assay, CALU6; conditions: Homo sapiens, Calu-6; CALU6 lung tumor cell line, 48 h
In short: (§1)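 Compounds, diluted tenfold serially over 0–10 μM, are applied to 1·10^4 seeded cells per well for 48 h at 37 °C. Resorufin formed during a further 4 h with CellTiter-Blue is detected by fluorescence emission at 590 nm.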

HGC27 = assay: CellTiter-Blue cell-based survival/proliferation assay, HGC27; conditions: Homo sapiens, HGC-27; HGC27 stomach tumor cell line, 48 h
In short: as §1

HEPG2 = assay: CellTiter-Blue cell-based survival/proliferation assay, HEPG2; conditions: Homo sapiens; HEPG2 liver tumor cell line, 48 h
In short: as §1

PC3 = assay: CellTiter-Blue cell-based survival/proliferation assay, PC3; conditions: Homo sapiens, PC-3; PC3 prostate tumor cell line, 48 h
In short: as §1

DU145 = assay: CellTiter-Blue cell-based survival/proliferation assay, DU145; conditions: Homo sapiens, DU-145; DU145 prostate tumor cell line, 48 h
In short: as §1

PANC1 = assay: CellTiter-Blue cell-based survival/proliferation assay, PANC1; conditions: Homo sapiens, PANC-1; PANC_1 pancreas tumor cell line, 48 h
In short: as §1

A549 = assay: CellTiter-Blue cell-based survival/proliferation assay, A549; conditions: Homo sapiens; A549 lung tumor cell line, 48 h
In short: as §1

A498 = assay: CellTiter-Blue cell-based survival/proliferation assay, A498; conditions: Homo sapiens; A498 kidney tumor cell line, 48 h
In short: as §1

H1299 = assay: CellTiter-Blue cell-based survival/proliferation assay, H1299; conditions: Homo sapiens, NCI-H1299; H1299 lung tumor cell line, 48 h
In short: as §1

ACHN = assay: CellTiter-Blue cell-based survival/proliferation assay, ACHN; conditions: Homo sapiens; ACHN kidney tumor cell line, 48 h
In short: as §1

HCT116 = assay: CellTiter-Blue cell-based survival/proliferation assay, HCT116; conditions: Homo sapiens, HCT-116; HCT116 colorectal tumor cell line, 48 h
In short: as §1

KARPAS299 = assay: CellTiter-Blue cell-based survival/proliferation assay, KARPAS299; conditions: Homo sapiens, KARPAS-299, Lymphoma cell line KARPAS299, 48 h, read-out: Anti-tumoral activity (measured IC50) KARPAS299
Protocol: (§2) Cell-Based Proliferation Screening of Compounds
(§3) CellTiter-Blue cell-based survival/proliferation assay (Promega G8080) was performed on tumor cell lines. A total of 1·10^4 cells/well/50 μl were seeded in a 96-wells plate. Treatment was initiated by addition of a 2× drug solution of 1/10 serial dilutions ranging from 0 to 10 μM. Cells were grown for 48 h at 37° C. and then incubated with 10 μl/well of Promega CellTiter-Bleue reagent for 4 h at 37° C. The amount of resorufin dye formed was quantified by its fluorescence emission at 590 nm using a scanning multiwell spectrophotometer (OPTIMA, BMG labtech, France). A blank well without cells was used as a background control for the spectrophotometer.

MESSA = assay: CellTiter-Blue cell-based survival/proliferation assay, MESSA; conditions: Homo sapiens, MES-SA; MESSA ovary tumor cell line, 48 h
In short: as §1

[1] = system: panel of about 34 human tumor cell lines; assay: Cell-based proliferation screening on panel of tumor cell lines; conditions: solid tumor cell line, cell line unknown, 48 h, read-out: IC50, solid tumor cell line of column 6 (last section of Table 3)
In short: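 CellTiter-Blue survival assay with 1·10^4 cells/well, each line treated 48 h at 37° C with 1/10 serial dilutions from 0 to 10 μM. Resorufin formed during a 4 h reagent incubation is read by fluorescence at 590 nm. A cell-free blank serves as background.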

BXPC3 = assay: CellTiter-Blue cell-based survival/proliferation assay, BXPC3; conditions: Homo sapiens, BXPC-3; BXPC3 pancreas tumor cell line, 48 h
In short: as §1

OPM2 = assay: CellTiter-Blue cell-based survival/proliferation assay, OPM2; conditions: Homo sapiens, OPM-2, Myeloma cell line OPM2, 48 h, read-out: Anti-tumoral activity (measured IC50) OPM2
In short: as §1

DLD1 = assay: CellTiter-Blue cell-based survival/proliferation assay, DLD1; conditions: Homo sapiens, DLD-1; DLD_1 colorectal tumor cell line, 48 h
In short: as §1

BT20 = assay: CellTiter-Blue cell-based survival/proliferation assay, BT20; conditions: Homo sapiens, BT-20; BT20 breast tumor cell line, 48 h
In short: as §1

REC1 = assay: CellTiter-Blue cell-based survival/proliferation assay, REC1; conditions: Homo sapiens, Lymphoma cell line REC1, 48 h, read-out: Anti-tumoral activity (measured IC50) REC1
Protocol: as §2, §3

AGS = assay: CellTiter-Blue cell-based survival/proliferation assay, AGS; conditions: Homo sapiens; AGS stomach tumor cell line, 48 h
In short: as §1

HUT78 = assay: CellTiter-Blue cell-based survival/proliferation assay, HUT78; conditions: Homo sapiens, Lymphoma cell line HUT78, 48 h, read-out: Anti-tumoral activity (measured IC50) HUT78
Protocol: as §2, §3

CLS354 = assay: CellTiter-Blue cell-based survival/proliferation assay, CLS354; conditions: Homo sapiens, CLS-354; CLS354_4 head & neck tumor cell line, 48 h
In short: as §1

TOV112D = assay: CellTiter-Blue cell-based survival/proliferation assay, TOV112D; conditions: Homo sapiens; TOV112D ovary tumor cell line, 48 h
In short: as §1

PLCPRF5 = assay: CellTiter-Blue cell-based survival/proliferation assay, PLCPRF5; conditions: Homo sapiens, PLC-PRF-5; PLC_PRF5 liver tumor cell line, 48 h
In short: as §1

HEP2 = assay: CellTiter-Blue cell-based survival/proliferation assay, HEP2; conditions: Homo sapiens, HEp-2; HEP2 head & neck tumor cell line, 48 h
In short: as §1

SW579 = assay: CellTiter-Blue cell-based survival/proliferation assay, SW579; conditions: Homo sapiens; SW579 head & neck tumor cell line, 48 h
In short: as §1

MDAMB231 = assay: CellTiter-Blue cell-based survival/proliferation assay, MDAMB231; conditions: Homo sapiens, MDA-MB-231; MDAMB231 breast tumor cell line, 48 h
In short: as §1

HL60 = assay: CellTiter-Blue cell-based survival/proliferation assay, HL60; conditions: Homo sapiens, HL-60, Leukemia cell line HL60, 48 h, read-out: Anti-tumoral activity (measured IC50) HL60
In short: as §1

Row | Compound | IC50 (CALU6) [nM] | IC50 (HGC27) [nM] | IC50 (HEPG2) [nM] | IC50 (PC3) [nM] | IC50 (DU145) [nM] | IC50 (PANC1) [nM] | IC50 (A549) [nM] | IC50 (A498) [nM] | IC50 (H1299) [nM] | IC50 (ACHN) [nM] | IC50 (HCT116) [nM] | IC50 (KARPAS299) [nM] | IC50 (MESSA) [nM] | IC50 [1] [nM] | IC50 (BXPC3) [nM] | IC50 (OPM2) [nM] | IC50 (DLD1) [nM] | IC50 (BT20) [nM] | IC50 (REC1) [nM] | IC50 (AGS) [nM] | other results
1 | CCOCc1ccc(C)c(Nc2ncc(-c3ccc(-n4ccccc4=O)cc3)o2)c1 [Example 049, 1-{4-[2-(5-Ethoxymethyl-(2-methyl-phenylamino))-oxazol-5-yl]-phenyl}-1H-pyridin-2-one] | > 1000 | > 1000 | > 1000 | > 1000 | > 1000 | > 1000 | > 1000 | > 1000 | > 1000 | > 1000 | > 1000 | > 1000 | > 1000 | > 1000 | > 1000 | > 1000 | > 1000 | > 1000 | > 1000 | > 1000 | IC50 (HUT78): > 1000 nM; IC50 (CLS354): > 1000 nM; IC50 (TOV112D): > 1000 nM; IC50 (PLCPRF5): > 1000 nM; IC50 (HEP2): > 1000 nM; IC50 (SW579): > 1000 nM; IC50 (MDAMB231): > 1000 nM; IC50 (HL60): > 1000 nM
2 | Cc1ccc(CO)cc1Nc1ncc(-c2ccc(-n3cccn3)cc2)o1 [Example 027, {4-Methyl-3-[5-(4-pyrazol-1-yl-phenyl)-oxazol-2-ylamino]-phenyl}-methanol] | > 1000 | > 1000 | > 1000 | > 1000 | > 1000 | > 1000 | > 1000 | > 1000 | > 1000 | > 1000 | > 1000 | > 1000 | > 1000 | > 1000 | > 1000 | > 1000 | > 1000 | > 1000 | > 1000 | > 1000 | IC50 (HUT78): > 1000 nM; IC50 (CLS354): > 1000 nM; IC50 (TOV112D): > 1000 nM; IC50 (PLCPRF5): > 1000 nM; IC50 (HEP2): > 1000 nM; IC50 (SW579): > 1000 nM; IC50 (MDAMB231): > 1000 nM; IC50 (HL60): > 1000 nM
3 | CCOCc1ccc(C)c(Nc2ncc(-c3ccc(N4CCN(CCNC(C)=O)C4=O)cc3)o2)c1 [Example 046, N-[2-(3-{4-[2-(5-Ethoxymethyl-(2-methyl-phenylamino))-oxazol-5-yl]-phenyl}-2-oxo-imidazolidin-1-yl)-ethyl]-acetamide] | > 1000 | > 1000 | > 1000 | > 1000 | > 1000 | > 1000 | > 1000 | > 1000 | > 1000 | > 1000 | > 1000 | > 1000 | > 1000 | > 1000 | > 1000 | > 1000 | > 1000 | > 1000 | > 1000 | > 1000 | IC50 (HUT78): > 1000 nM; IC50 (CLS354): > 1000 nM; IC50 (TOV112D): > 1000 nM; IC50 (PLCPRF5): > 1000 nM; IC50 (HEP2): > 1000 nM; IC50 (SW579): > 1000 nM; IC50 (MDAMB231): > 1000 nM; IC50 (HL60): > 1000 nM
4 | CCOCc1cccc(Nc2ncc(-c3ccc(-n4cccn4)cc3)o2)c1 [Example 020, (3-Ethoxymethyl-phenyl)-[5-(4-pyrazol-1-yl-phenyl)-oxazol-2-yl]-amine] | > 1000 | > 1000 | > 1000 | ≤ 100 | > 1000 | > 1000 | > 1000 | > 1000 | > 1000 | > 1000 | > 1000 | ≤ 100 | > 1000 | ≤ 100 | 500 to 1000 | ≤ 100 | 100 to 500 | > 1000 | ≤ 100 | > 1000 | IC50 (HUT78): ≤ 100 nM; IC50 (CLS354): ≤ 100 nM; IC50 (TOV112D): > 1000 nM; IC50 (PLCPRF5): > 1000 nM; IC50 (HEP2): > 1000 nM; IC50 (SW579): > 1000 nM; IC50 (MDAMB231): 100 to 500 nM; IC50 (HL60): ≤ 100 nM
5 | CCOCc1ccc(C)c(Nc2ncc(-c3ccc(-n4cncn4)cc3)o2)c1 [Example 034, (5-Ethoxymethyl-2-methyl-phenyl)-[5-(4-[1,2,4]triazol-1-yl-phenyl)-oxazol-2-yl]-amine] | > 1000 | > 1000 | > 1000 | > 1000 | > 1000 | > 1000 | > 1000 | > 1000 | > 1000 | > 1000 | > 1000 | 100 to 500 | > 1000 | > 1000 | > 1000 | > 1000 | > 1000 | > 1000 | 100 to 500 | > 1000 | IC50 (HUT78): 100 to 500 nM; IC50 (CLS354): 500 to 1000 nM; IC50 (TOV112D): 500 to 1000 nM; IC50 (PLCPRF5): > 1000 nM; IC50 (HEP2): 500 to 1000 nM; IC50 (SW579): > 1000 nM; IC50 (MDAMB231): > 1000 nM; IC50 (HL60): > 1000 nM
6 | CCOCc1ccc(C)c(Nc2ncc(-c3ccc(N4CCN(C)C4=O)cc3)o2)c1 [Example 044, 1-{4-[2-(5-Ethoxymethyl-(2-methyl-phenylamino))-oxazol-5-yl]-phenyl}-3-methyl-imidazolidin-2-one] | > 1000 | > 1000 | > 1000 | 500 to 1000 | > 1000 | > 1000 | > 1000 | > 1000 | > 1000 | > 1000 | > 1000 | 100 to 500 | > 1000 | 100 to 500 | > 1000 | 500 to 1000 | > 1000 | > 1000 | 100 to 500 | > 1000 | IC50 (HUT78): 500 to 1000 nM; IC50 (CLS354): 500 to 1000 nM; IC50 (TOV112D): > 1000 nM; IC50 (PLCPRF5): > 1000 nM; IC50 (HEP2): > 1000 nM; IC50 (SW579): > 1000 nM; IC50 (MDAMB231): > 1000 nM; IC50 (HL60): 100 to 500 nM
7 | CC(=O)NCCOCc1ccc(C)c(Nc2ncc(-c3ccc(-n4cccn4)cc3)o2)c1 [Example 025, N-(2-{4-Methyl-3-[5-(4-pyrazol-1-yl-phenyl)-oxazol-2-ylamino]-benzyloxy}-ethyl)-acetamide] | > 1000 | > 1000 | > 1000 | > 1000 | > 1000 | > 1000 | > 1000 | > 1000 | > 1000 | > 1000 | > 1000 | > 1000 | > 1000 | > 1000 | > 1000 | > 1000 | > 1000 | > 1000 | > 1000 | > 1000 | IC50 (HUT78): > 1000 nM; IC50 (CLS354): > 1000 nM; IC50 (TOV112D): > 1000 nM; IC50 (PLCPRF5): > 1000 nM; IC50 (HEP2): > 1000 nM; IC50 (SW579): > 1000 nM; IC50 (MDAMB231): > 1000 nM; IC50 (HL60): > 1000 nM
